Assay results as given in the supplement of paper PMC6045584.
± gives the standard deviation of the averaged measurements.

What was measured:
DECITABINE [1] = compound: T1, Nc1ncn([C@H]2C[C@H](O)[C@@H](CO)O2)c(=O)n1 [DECITABINE]; test: surviving fraction relative to DMSO-only wells; higher = less growth inhibition; settings: exposure time: 5 days
In short: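 Viability values are CellTiter-Glo luminescence readings, given as surviving fraction against the median of DMSO-only wells. The readings were taken after 10 minutes at room temperature, following five days of continuous exposure to inhibitors at 0.5, 1, 5, 10, 50, 100, 500 and 1000 nM that began 24 hours after log-phase tumour cell lines were seeded at 250–500 cells per well in 384-well plates. Every line was screened three times and kept only if replicate Pearson r >0.7 and median Z' >0.3.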

17-AAG = compound: C=CCNC1=C2C[C@@H](C)C[C@H](OC)[C@H](O)[C@@H](C)/C=C(\C)[C@H](OC(N)=O)[C@@H](OC)/C=C\C=C(/C)C(=O)NC(=CC1=O)C2=O [17-AAG]; test: area under dose-response curve of surviving fraction (unscaled, Aref=0) (surviving fraction x log10(nM)); higher = more resistant; settings: exposure time: 5 days; dose range 0.5-1000 nM
In short: (§1)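 Tumour cell lines in 384-well plates were exposed for five days to eight inhibitor concentrations from 0.5 to 1000 nM. Viability was read by CellTiter-Glo luminescence, normalised to DMSO-only wells, in three screens per line. Dose-response survival curves were fitted to surviving fractions by 3-parameter logistic regression in the drc R package. Area under the curve is the unscaled activity area (Aref = 0) over log10 dose.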

[2] = compound: CCN(CC)CCCCNc1ncc2cc(-c3cc(OC)cc(OC)c3)c(NC(=O)NC(C)(C)C)nc2n1; test: as above; settings: exposure time: 5 days; dose range 0.5-1000 nM
In short: as §1

SALINOMYCIN = compound: CC[C@@H](C(=O)[C@@H](C)[C@@H](O)[C@H](C)[C@@H]1O[C@@H]([C@@H](CC)C(=O)O)CC[C@@H]1C)[C@H]1O[C@]2(C=C[C@@H](O)[C@]3(CC[C@@](C)([C@H]4CC[C@](O)(CC)[C@H](C)O4)O3)O2)[C@H](C)C[C@@H]1C [SALINOMYCIN]; test: as above; settings: exposure time: 5 days; dose range 0.5-1000 nM
In short: as §1

ABT-737 = compound: CN(C)CC[C@H](CSc1ccccc1)Nc1ccc(S(=O)(=O)NC(=O)c2ccc(N3CCN(Cc4ccccc4-c4ccc(Cl)cc4)CC3)cc2)cc1[N+](=O)[O-] [ABT-737]; test: as above; settings: exposure time: 5 days; dose range 0.5-1000 nM
In short: as §1

FLAVOPIRIDOL = compound: CN1CC[C@H](c2c(O)cc(O)c3c(=O)cc(-c4ccccc4Cl)oc23)[C@H](O)C1 [FLAVOPIRIDOL]; test: as above; settings: exposure time: 5 days; dose range 0.5-1000 nM
In short: as §1

2-METHOXYESTRADIOL = compound: COc1cc2c(cc1O)CC[C@@H]1[C@@H]2CC[C@]2(C)[C@@H](O)CC[C@@H]12 [2-METHOXYESTRADIOL]; test: as above; settings: exposure time: 5 days; dose range 0.5-1000 nM
In short: as §1

NUTLIN3 = compound: COc1ccc(C2=N[C@@H](c3ccc(Cl)cc3)[C@@H](c3ccc(Cl)cc3)N2C(=O)N2CCNC(=O)C2)c(OC(C)C)c1 [NUTLIN3]; test: as above; settings: exposure time: 5 days; dose range 0.5-1000 nM
In short: as §1

DOXORUBICIN = compound: COc1cccc2c1C(=O)c1c(O)c3c(c(O)c1C2=O)C[C@@](O)(C(=O)CO)C[C@@H]3O[C@H]1C[C@H](N)[C@H](O)[C@H](C)O1 [DOXORUBICIN]; test: as above; settings: exposure time: 5 days; dose range 0.5-1000 nM
In short: as §1

LAPATINIB = compound: CS(=O)(=O)CCNCc1ccc(-c2ccc3ncnc(Nc4ccc(OCc5cccc(F)c5)c(Cl)c4)c3c2)o1 [LAPATINIB]; test: as above; settings: exposure time: 5 days; dose range 0.5-1000 nM
In short: as §1

VISMODEGIB = compound: CS(=O)(=O)c1ccc(C(=O)Nc2ccc(Cl)c(-c3ccccn3)c2)c(Cl)c1 [VISMODEGIB]; test: as above; settings: exposure time: 5 days; dose range 0.5-1000 nM
In short: as §1

DECITABINE [3] = compound: T1, DECITABINE; test: as above; settings: exposure time: 5 days; dose range 0.5-1000 nM
In short: as §1

RESVERATROL = compound: Oc1ccc(/C=C/c2cc(O)cc(O)c2)cc1 [RESVERATROL]; test: as above; settings: exposure time: 5 days; dose range 0.5-1000 nM
In short: as §1

| Test System | surviving fraction (DECITABINE [1]; 0.5 nM) | surviving fraction (DECITABINE [1]; 1 nM) | surviving fraction (DECITABINE [1]; 5 nM) | surviving fraction (DECITABINE [1]; 10 nM) | surviving fraction (DECITABINE [1]; 50 nM) | surviving fraction (DECITABINE [1]; 100 nM) | surviving fraction (DECITABINE [1]; 500 nM) | surviving fraction (DECITABINE [1]; 1000 nM) | area under dose-response curve (17-AAG) | area under dose-response curve [2] | area under dose-response curve (SALINOMYCIN) | area under dose-response curve (ABT-737) | area under dose-response curve (FLAVOPIRIDOL) | area under dose-response curve (2-METHOXYESTRADIOL) | area under dose-response curve (NUTLIN3) | area under dose-response curve (DOXORUBICIN) | area under dose-response curve (LAPATINIB) | area under dose-response curve (VISMODEGIB) | area under dose-response curve (DECITABINE [3]) | area under dose-response curve (RESVERATROL) |
| --- | --- | --- | --- | --- | --- | --- | --- | --- | --- | --- | --- | --- | --- | --- | --- | --- | --- | --- | --- | --- |
| DU4475 BREAST | 0.998 ± 0.059 | 0.872 ± 0.002 | 0.774 ± 0.11 | 0.782 ± 0.074 | 0.537 ± 0.066 | 0.415 ± 0.054 | 0.194 ± 0.015 | 0.167 ± 0.0061 | 1.26 | 2.52 | 2.43 | 2.54 | 1.69 | 2.52 | 3.2 | 0.979 | 3.33 | 3.21 | 1.99 | 3.25 |
| HCC1806 BREAST | 0.937 ± 0.083 | 0.698 ± 0.11 | 0.531 ± 0.02 | 0.483 ± 0.031 | 0.256 ± 0.039 | 0.159 ± 0.0035 | 0.083 ± 0.012 | 0.0507 ± 0.008 | 0.894 | 3.58 | 2.77 | 3.72 | 2.06 | 3.46 | 3.55 | 1.3 | 3.15 | 3.23 | 1.27 | 3.7 |
| HCC1954 BREAST | 1.07 ± 0.19 | 1.05 ± 0.13 | 1.32 ± 0.13 | 1.32 ± 0.05 | 1.13 ± 0.13 | 1.22 ± 0.023 | 1.29 ± 0.044 | 1.08 ± 0.044 | 0.46 | 3.28 | 2.46 | 3.03 | 1.99 | 2.85 | 3.64 | 1.78 | 2.76 | 2.26 | 4.03 | 3.7 |
| HELA CERVIX | 1.03 ± 0.043 | 0.9852 ± 0.0096 | 1.05 ± 0.043 | 1 ± 0.017 | 1.1 ± 0.03 | 1.08 ± 0.017 | 1.15 ± 0.065 | 0.944 ± 0.032 | 2.37 | 3.33 | 3.17 | 3.64 | 2.54 | 3.11 | 3.38 | 1.69 | 3.7 | 3.49 | 3.41 | 3.64 |
| HOSMNG BONE | 1.04 ± 0.043 | 1.03 ± 0.057 | 1.02 ± 0.061 | 1.02 ± 0.072 | 1.1 ± 0.036 | 1.12 ± 0.086 | 1.1 ± 0.12 | 1.11 ± 0.046 | 2.42 | 3.33 | 3.21 | 3.05 | 2.35 | 3.07 | 3.48 | 2.25 | 3.02 | 3.19 | 3.51 | 2.77 |
| HSSYII SYNOVIAL | 0.972 ± 0.032 | 1.01 ± 0.046 | 0.933 ± 0.048 | 0.938 ± 0.073 | 0.86 ± 0.049 | 0.696 ± 0.024 | 0.48 ± 0.012 | 0.348 ± 0.036 | 2.27 | 2.02 | 2.22 | 2.95 | 2.06 | 2.57 | 2.98 | 0.844 | 3.2 | 2.83 | 2.67 | 3.27 |
| HU09 BONE | 0.982 ± 0.083 | 0.968 ± 0.081 | 1.12 ± 0.13 | 0.997 ± 0.072 | 1.17 ± 0.13 | 1.04 ± 0.027 | 0.95 ± 0.084 | 0.847 ± 0.034 | 1.08 | 3.06 | 2.91 | 3.04 | 2.06 | 3.01 | 3.4 | 1.38 | 3.23 | 3.11 | 3.33 | 3.57 |
| JIMT1 BREAST | 1.04 ± 0.021 | 0.999 ± 0.032 | 1 ± 0.018 | 0.9743 ± 0.0064 | 0.933 ± 0.038 | 0.819 ± 0.048 | 0.546 ± 0.036 | 0.471 ± 0.03 | 1.58 | 3.25 | 2.96 | 3.44 | 2.19 | 3.13 | 3.38 | 2.21 | 3.27 | 3 | 2.86 | 3.4 |
| KPD BONE | 0.916 ± 0.057 | 0.919 ± 0.053 | 0.801 ± 0.022 | 0.692 ± 0.056 | 0.534 ± 0.023 | 0.464 ± 0.012 | 0.379 ± 0.026 | 0.353 ± 0.044 | 1.75 | 3.24 | 2.62 | 3.2 | 2.05 | 3.16 | 3.29 | 1.78 | 3.44 | 3.27 | 2.08 | 3.44 |
| LM7 BONE | 0.939 ± 0.025 | 1 ± 0.035 | 1.05 ± 0.05 | 0.983 ± 0.061 | 0.939 ± 0.027 | 0.91 ± 0.042 | 0.749 ± 0.044 | 0.742 ± 0.048 | 1.46 | 3.22 | 3.08 | 3.48 | 2.3 | 3.02 | 3.39 | 1.78 | 3.39 | 3.28 | 3.06 | 3.63 |
| MCF7 BREAST | 0.932 ± 0.022 | 0.906 ± 0.065 | 0.887 ± 0.02 | 0.803 ± 0.02 | 0.843 ± 0.04 | 0.861 ± 0.026 | 0.842 ± 0.034 | 0.83 ± 0.043 | 1.92 | 2.89 | 2.78 | 3.27 | 2.18 | 2.89 | 2.87 | 1.99 | 3.11 | 2.99 | 2.83 | 3.21 |
| MDAMB134 BREAST | 0.979 ± 0.082 | 1.06 ± 0.26 | 1.04 ± 0.1 | 1.02 ± 0.023 | 1.1 ± 0.12 | 1.25 ± 0.059 | 1.15 ± 0.042 | 1.22 ± 0.016 | 1.91 | 2.92 | 3.52 | 3.13 | 2.96 | 2.73 | 3.16 | 2.35 | 3.79 | 2.56 | 3.67 | 3.44 |
